From patent US12187681B2 (Shanghai East Hospital, priority 2019, dated 2025)

Key:
[1] = molecular target: T1, hERG (human ether-a-go-go related gene potassium channel, KCNH2) (Homo sapiens, UniProt Q12809); experiment: hERG channel whole-cell patch clamp (Ion Channel Activity Measurement); assay type: cell-based; settings: human, room temperature; for inhibition at 1 μM: pH 7.4, 1 μM test article; for inhibition at 10 μM: pH 7.4, 10 μM test article
T1 construct: expressed in transfected cells; host or cells: HEK293
T1 sequence (Q12809 whole entry): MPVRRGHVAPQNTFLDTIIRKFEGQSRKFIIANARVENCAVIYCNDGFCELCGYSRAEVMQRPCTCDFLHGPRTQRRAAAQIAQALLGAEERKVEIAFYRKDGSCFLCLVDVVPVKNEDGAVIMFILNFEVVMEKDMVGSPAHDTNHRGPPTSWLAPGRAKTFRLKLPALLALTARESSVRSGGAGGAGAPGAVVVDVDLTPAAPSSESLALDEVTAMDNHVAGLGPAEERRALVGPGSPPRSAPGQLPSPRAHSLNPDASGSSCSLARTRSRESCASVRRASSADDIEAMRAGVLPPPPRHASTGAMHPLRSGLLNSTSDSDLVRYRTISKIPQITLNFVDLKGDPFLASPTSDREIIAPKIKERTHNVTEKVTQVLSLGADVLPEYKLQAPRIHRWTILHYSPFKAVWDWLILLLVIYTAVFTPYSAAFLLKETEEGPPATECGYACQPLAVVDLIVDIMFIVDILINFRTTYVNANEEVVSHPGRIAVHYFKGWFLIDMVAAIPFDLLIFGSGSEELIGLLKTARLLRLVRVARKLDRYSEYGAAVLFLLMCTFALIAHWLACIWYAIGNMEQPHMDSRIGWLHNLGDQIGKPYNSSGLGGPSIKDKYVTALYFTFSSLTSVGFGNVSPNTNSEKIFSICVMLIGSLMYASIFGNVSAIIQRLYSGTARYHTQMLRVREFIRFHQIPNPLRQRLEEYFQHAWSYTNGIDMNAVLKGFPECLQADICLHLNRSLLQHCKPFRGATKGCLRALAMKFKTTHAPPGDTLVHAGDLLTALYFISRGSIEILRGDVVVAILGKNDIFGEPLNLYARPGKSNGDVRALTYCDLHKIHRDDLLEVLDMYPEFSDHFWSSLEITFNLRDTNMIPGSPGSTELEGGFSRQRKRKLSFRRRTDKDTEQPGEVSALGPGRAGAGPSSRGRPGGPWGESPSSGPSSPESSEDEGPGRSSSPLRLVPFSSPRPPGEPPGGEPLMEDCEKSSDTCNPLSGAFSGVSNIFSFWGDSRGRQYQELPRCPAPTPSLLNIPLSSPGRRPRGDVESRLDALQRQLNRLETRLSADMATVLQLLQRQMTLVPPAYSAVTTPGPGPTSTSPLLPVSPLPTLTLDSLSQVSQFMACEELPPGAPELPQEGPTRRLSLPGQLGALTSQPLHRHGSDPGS
Description: HEK293 cell line expressing the human ERG (ether-a-go-go related gene) potassium channel (Potassium voltage-gated channel subfamily H member 2). cDNA strictly similar to GenBank accession number: NM_000238
(§1) Cells expressing channels were cultured in medium supplemented with 20% FBS in HAM'S F12 culture dish. Cells grew in a humidified incubator at 37° C. under 5% carbon dioxide. To passage cells, remove poor medium and rinse the cells once with PBS 1X. […] Place plate on a 37° C. warming incubator 5 min. As soon as cells are detached, add 5 ml of 37° C. complete medium. Draw cell suspension into a sterile pipet and homogenize cells gently to dissociate cells aggregates. Amplify or maintain the cells by seeding 2.5*105 cells in a 6 cm dish (final volume: 5 ml). To maintain electrophysiological performances, cell density must not exceed 80%. On the day before patch clamp experiment, 3*103 cells were seeded on coverslips in the 24-well plate and incubated at 37° C. in 5% carbon dioxide.
(§2) Glass pipette (BF150-86-10, Sutter Instruments) was made by puller (P97, Sutter Instruments). The glass pipette was manipulated using Micro-manipulator (Carm-C-S, MCI Instruments) under the microscope (AE31EF-INV, Motic). After touching the cell, a slight suction was applied to achieve high seal (GΩ). Fast capacitance (in pF) compensation was made after high seal was achieved; after achieving high seal, the membrane was broken, Cell capacitance (in pF) compensation was made from whole-cell capacitance compensation after the whole cell mode was achieved. No leak subtraction was made.
(§3) Cell was incubated with the test article for 5 minutes, or until the current reached a steady-state level. Multiple concentrations of test article were tested. The test articles were applied gradually from low to high concentration. The test and control solutions were flown into a recording chamber mounted on the stage of an inverted microscope via a gravity-fed solution delivery system. During the experiment, solutions were withdrawn from the recording chamber by vacuum aspiration. Each concentration was tested at multiple times. Each cell acted as its own control. All tests were performed at room temperature (23-25° C.).
hERG current was recorded under a holding potential at −80 mV and then depolarized to 30 mV for 2.5 seconds to activate the hERG channel. The peak tail currents were induced by a repolarizing pulse to −50 mV for 4 seconds. This voltage-clamp pulse protocol was performed continuously during the experiment. An interpulse interval of 10 seconds allowed recovery from inactivation. An interpulse of −50 mV test for 0.5 second before 30 mV depolarized step was included for leak current correction

[2] = molecular target: T2, CaV1.2 (L-type voltage-dependent calcium channel; CACNA1C, CACNB2, CACNA2D1) (Homo sapiens, UniProt Q13936); experiment: CaV1.2 channel whole-cell patch clamp (Ion Channel Activity Measurement); assay type: cell-based; settings: human, room temperature; for inhibition at 5 min, 1 μM: pH 7.4, 1 μM test article; for inhibition at 5 min, 10 μM: pH 7.4, 10 μM test article, read-out: CaV 1.2 10 μM (ion-channel inhibition)
T2 construct: expressed in transfected cells; host or cells: CHO
T2 sequence (Q13936 1-2138 isoform Q13936-12): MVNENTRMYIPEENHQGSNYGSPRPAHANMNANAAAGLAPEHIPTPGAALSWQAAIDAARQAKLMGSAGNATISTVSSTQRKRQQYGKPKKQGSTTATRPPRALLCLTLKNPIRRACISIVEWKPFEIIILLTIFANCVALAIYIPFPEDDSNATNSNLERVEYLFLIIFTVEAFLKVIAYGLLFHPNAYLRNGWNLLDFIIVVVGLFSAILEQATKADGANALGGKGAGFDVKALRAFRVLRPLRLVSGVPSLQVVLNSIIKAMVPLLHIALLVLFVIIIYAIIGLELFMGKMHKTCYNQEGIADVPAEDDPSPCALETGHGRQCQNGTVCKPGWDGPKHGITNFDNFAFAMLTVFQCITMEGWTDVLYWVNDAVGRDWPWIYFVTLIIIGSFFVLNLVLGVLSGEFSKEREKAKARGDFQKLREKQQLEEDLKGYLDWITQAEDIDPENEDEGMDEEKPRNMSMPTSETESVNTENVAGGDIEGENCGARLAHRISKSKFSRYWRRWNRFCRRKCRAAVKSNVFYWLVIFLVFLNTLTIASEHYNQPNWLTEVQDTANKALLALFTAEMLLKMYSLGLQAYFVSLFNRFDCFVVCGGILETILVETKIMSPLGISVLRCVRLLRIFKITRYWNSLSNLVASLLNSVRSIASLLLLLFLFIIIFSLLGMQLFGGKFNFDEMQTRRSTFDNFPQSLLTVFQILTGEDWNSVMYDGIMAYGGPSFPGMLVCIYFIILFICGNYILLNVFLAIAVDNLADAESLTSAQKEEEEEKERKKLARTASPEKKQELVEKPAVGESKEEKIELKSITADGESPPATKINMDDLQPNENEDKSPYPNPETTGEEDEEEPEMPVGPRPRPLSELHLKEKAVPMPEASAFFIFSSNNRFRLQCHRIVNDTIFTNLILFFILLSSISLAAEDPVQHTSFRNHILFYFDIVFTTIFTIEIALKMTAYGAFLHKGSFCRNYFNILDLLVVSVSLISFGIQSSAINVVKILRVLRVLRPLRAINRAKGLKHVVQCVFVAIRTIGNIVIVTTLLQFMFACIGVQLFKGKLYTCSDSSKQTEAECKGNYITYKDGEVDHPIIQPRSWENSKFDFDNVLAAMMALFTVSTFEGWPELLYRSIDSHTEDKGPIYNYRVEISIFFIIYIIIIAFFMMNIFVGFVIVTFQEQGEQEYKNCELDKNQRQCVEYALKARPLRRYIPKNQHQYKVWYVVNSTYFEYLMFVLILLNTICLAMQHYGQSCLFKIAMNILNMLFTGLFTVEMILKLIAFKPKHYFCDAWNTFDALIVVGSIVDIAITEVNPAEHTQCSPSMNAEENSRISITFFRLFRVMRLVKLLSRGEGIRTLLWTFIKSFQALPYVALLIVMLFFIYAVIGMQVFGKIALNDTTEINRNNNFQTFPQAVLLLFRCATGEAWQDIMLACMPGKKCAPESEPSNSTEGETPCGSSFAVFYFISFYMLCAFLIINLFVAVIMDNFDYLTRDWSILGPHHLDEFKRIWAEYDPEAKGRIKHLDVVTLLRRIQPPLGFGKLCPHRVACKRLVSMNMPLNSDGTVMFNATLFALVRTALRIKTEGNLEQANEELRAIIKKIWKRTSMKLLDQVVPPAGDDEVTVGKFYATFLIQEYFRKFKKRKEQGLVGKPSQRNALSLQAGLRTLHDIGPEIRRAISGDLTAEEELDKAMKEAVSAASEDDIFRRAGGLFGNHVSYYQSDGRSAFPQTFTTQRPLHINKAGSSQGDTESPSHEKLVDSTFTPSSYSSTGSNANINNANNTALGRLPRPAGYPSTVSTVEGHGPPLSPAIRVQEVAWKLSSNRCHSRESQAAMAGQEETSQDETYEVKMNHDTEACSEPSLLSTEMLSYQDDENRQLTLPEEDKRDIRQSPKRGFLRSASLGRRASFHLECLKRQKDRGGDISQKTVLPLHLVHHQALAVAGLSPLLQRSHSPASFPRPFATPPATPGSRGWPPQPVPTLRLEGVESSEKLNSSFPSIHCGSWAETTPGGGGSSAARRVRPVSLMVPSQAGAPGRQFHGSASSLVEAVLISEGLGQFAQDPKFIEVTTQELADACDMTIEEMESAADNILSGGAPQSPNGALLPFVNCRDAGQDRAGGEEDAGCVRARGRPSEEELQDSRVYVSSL
T2 sequence (Q08289 1-605 isoform Q08289-2 partner): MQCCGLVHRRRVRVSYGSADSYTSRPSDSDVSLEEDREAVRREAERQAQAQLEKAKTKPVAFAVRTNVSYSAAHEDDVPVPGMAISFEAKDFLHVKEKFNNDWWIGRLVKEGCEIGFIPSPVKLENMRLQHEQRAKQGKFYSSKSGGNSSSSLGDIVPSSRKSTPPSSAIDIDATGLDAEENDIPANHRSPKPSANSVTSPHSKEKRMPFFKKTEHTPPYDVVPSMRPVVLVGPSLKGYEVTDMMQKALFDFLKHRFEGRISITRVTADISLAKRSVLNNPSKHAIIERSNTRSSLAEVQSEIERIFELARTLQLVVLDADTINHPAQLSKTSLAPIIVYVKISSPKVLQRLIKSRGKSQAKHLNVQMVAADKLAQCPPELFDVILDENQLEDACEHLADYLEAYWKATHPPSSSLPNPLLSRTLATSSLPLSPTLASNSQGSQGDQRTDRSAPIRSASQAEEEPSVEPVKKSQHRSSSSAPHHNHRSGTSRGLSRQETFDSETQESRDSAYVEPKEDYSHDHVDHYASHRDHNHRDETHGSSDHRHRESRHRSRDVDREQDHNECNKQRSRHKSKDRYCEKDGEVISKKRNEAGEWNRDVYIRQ
T2 sequence (P54289 25-1091 isoform P54289-2 partner limits assumed): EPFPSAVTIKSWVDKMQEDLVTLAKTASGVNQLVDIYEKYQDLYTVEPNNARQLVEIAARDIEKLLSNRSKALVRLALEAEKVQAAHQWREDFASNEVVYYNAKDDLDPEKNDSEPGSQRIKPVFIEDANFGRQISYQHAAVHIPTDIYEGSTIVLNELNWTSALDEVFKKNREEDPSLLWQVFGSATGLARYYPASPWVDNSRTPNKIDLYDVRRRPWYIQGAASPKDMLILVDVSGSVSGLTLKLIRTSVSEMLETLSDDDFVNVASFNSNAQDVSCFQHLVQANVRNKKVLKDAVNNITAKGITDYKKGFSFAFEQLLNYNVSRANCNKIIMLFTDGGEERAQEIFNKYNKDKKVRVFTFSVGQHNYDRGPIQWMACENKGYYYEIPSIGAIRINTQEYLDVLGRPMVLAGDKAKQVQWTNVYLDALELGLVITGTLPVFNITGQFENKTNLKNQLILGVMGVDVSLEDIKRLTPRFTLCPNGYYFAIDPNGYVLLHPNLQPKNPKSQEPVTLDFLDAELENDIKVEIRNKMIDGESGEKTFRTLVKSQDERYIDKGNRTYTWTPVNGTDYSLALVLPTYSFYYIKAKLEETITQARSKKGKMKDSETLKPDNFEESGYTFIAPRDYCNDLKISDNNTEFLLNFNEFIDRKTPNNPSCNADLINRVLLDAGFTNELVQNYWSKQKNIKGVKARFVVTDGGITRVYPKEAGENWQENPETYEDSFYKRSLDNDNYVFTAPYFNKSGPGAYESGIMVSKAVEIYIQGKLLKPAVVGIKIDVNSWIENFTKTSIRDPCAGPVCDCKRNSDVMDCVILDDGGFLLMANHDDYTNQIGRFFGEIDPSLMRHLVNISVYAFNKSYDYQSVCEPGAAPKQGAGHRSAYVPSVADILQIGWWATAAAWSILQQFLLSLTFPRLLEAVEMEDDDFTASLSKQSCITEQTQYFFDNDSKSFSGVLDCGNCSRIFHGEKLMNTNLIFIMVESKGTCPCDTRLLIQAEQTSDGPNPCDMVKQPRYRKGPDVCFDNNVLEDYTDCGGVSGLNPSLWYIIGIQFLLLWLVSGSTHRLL
T2 sequence (P54289 957-1103 partner limits assumed): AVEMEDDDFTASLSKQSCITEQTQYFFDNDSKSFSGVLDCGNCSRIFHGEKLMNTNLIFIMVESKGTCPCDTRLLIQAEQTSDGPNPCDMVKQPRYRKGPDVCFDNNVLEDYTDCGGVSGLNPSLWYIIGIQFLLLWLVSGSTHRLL
Description: • CHO cell line stably expressing human calcium channel, voltage-dependent, L type, • CACNA1C: cDNA strictly similar to GenBank accession number: NM_000719 • CACNB2: cDNA strictly similar to GenBank accession number: NM_000724 • CACNA2D1: cDNA strictly similar to GenBank accession number: NM_000722 Iks Channel Cell Line:
as §1
Bath solution: 140 mM TEA-C1, 2 mM MgCl2·6H2O, 10 mM CaCl2, 10 mM HEPES, 5 mM D-glucose, pH=7.4 with TEA-OH. Pipette solution: 120 mM CsCl, 1 mM MgCl2·6H2O, 10 mM HEPES, 10 mM EGTA, 0.3 mM Na2-GTP, 4 mM Mg-ATP, pH=7.2 with CsOH.
as §2, §3
Cav1.2 current was recorded under a holding potential at −80 mV and then depolarized to +10 mV for 0.3 seconds. This protocol was repeated at 20 s intervals to observe the effect of test articles on the peak of Cav1.2 current.

[3] = HEK293 cells expressing the human ERG potassium channel

Compound	inhibition at 1 μM [1, 3] [%]	inhibition at 10 μM [1, 3] [%]	inhibition at 5 min, 1 μM [2] [%]	inhibition at 5 min, 10 μM [2] [%]	inhibition at 1 μM [1] [%]	inhibition at 10 μM [1] [%]
O=C(c1c(O)ccc2ccccc12)c1c(O)ccc2ccccc12 [Compound A007, bis(2-hydroxynaphthalen-1-yl)methanone]	< 25	25 to 50	< 25	50 to 75		
CC(c1c(O)ccc2ccccc12)c1c(O)ccc2ccccc12 [Compound A012, 1,1′-(ethane-1,1-diyl) bis (naphthalen-2-ol)]	< 25	25 to 50	< 25	75 to 100		
Cc1ccc(O)c(Cc2c(O)ccc(C)c2C)c1C [Compound A017, 2,2′-methylenebis(3,4-dimethylphenol)]	< 25	25 to 50	< 25	25 to 50		
Nc1ccc2ccccc2c1Cc1c(O)ccc2ccccc12 [Compound A021, 1-((2-aminonaphthalen-1-yl)methyl)naphthalen-2-ol]	< 25	< 25	< 25	< 25		
Nc1ccc2ccccc2c1Cc1c(N)ccc2ccccc12 [Compound A022, 1,1′-methylenebis(naphthalen-2-amine)]			< 25	50 to 75	< 25	50 to 75
Nc1cc(Cc2c(N)ccc3ccccc23)c2ccccc2c1 [Compound A022-2, 4-((2-aminonaphthalen-1-yl)methyl)naphthalen-2-amine]	< 25	75 to 100	< 25	25 to 50		
CS(=O)(=O)Nc1ccc2ccccc2c1Cc1c(NS(C)(=O)=O)ccc2ccccc12 [Compound A024, N,N′-(methylenebis(naphthalene-1,2-diyl))dimethanesulfonamide]			< 25	< 25		
CS(=O)(=O)Nc1cc(Cc2c(NS(C)(=O)=O)ccc3ccccc23)c2ccccc2c1 [Compound A024-2, N-(1-((3-(methylsulfonamido)naphthalen-1-yl)methyl)naphthalen-2-yl)methanesulfonamide]	< 25	50 to 75	< 25	25 to 50		
CS(=O)(=O)Nc1cc2ccccc2cc1Cc1c(NS(C)(=O)=O)ccc2ccccc12 [Compound A024-3, N-(3-((2-(methylsulfonamido)naphthalen-1-yl)methyl)naphthalen-2-yl)methanesulfonamide]			< 25	25 to 50		
CS(=O)(=O)Nc1ccc2ccccc2c1Cc1c(O)ccc2ccccc12 [Compound A025, N-(1-((2-hydroxynaphthalen-1-yl)methyl)naphthalen-2-yl)methanesulfonamide]	< 25	25 to 50	< 25	25 to 50		
Oc1ccc2ccccc2c1Cc1c(O)ncc2ccccc12 [Compound A027, 4-((2-hydroxynaphthalen-1-yl)methyl)isoquinolin-3-ol]	< 25	< 25	< 25	25 to 50		
Cc1cc2ccccc2c(Cc2c(O)c(C)cc3ccccc23)c1O [Compound A032, 1,1′-methylenebis(3-methylnaphthalen-2-ol)]	< 25	< 25	< 25	< 25		
CCN(CC)CCOc1ccc2ccccc2c1Cc1c(OCCN(CC)CC)ccc2ccccc12 [Compound A103, 2,2′-((methylenebis(naphthalene-1,2-diyl))bis(oxy))bis(N,N-diethylethan-1-amine) formic acid]			< 25	< 25		
CC(C)Oc1ccc2ccccc2c1Cc1c(OCCN)ccc2ccccc12 [Compound A246, 2-((1-((2-isopropoxynaphthalen-1-yl)methyl)naphthalen-2-yl)oxy)ethan-1-amine]	25 to 50					
